Literature values in patent publication US20080095838A1, “Solid pharmaceutical composition containing a lipophilic active principle and preparation method thereof” (CLL Pharma, priority 2002, published 2008).
Structures can show the parent of a compound that is named as a salt.

Legend:
[1] = in vivo
[2] = in water

SMILES | elimination half-life [1] | solubility [2] [µg/mL]
CC(C)OC(=O)C(C)(C)Oc1ccc(C(=O)c2ccc(Cl)cc2)cc1 [fenofibrate, 2-(4-(4-chlorobenzoyl)phenoxy)-2-methylpropanoic acid 1-methylethyl ester] | approximately 20 hours | 
CC(C)(C)NC(=O)[C@@H]1C[C@@H]2CCCC[C@@H]2CN1C[C@@H](O)[C@H](Cc1ccccc1)NC(=O)[C@H](CC(N)=O)NC(=O)c1ccc2ccccc2n1 [saquinavir mesylate] |  | 2220
